Laboratory results published in patent US20250177324A1, “A[…], AND PREPARATION METHOD THEREFOR AND USE THEREOF” (SHANGHAI ZHIGEN PHARMACEUTICAL & TECHNOLOGY CO. LTD., priority 2022, published 2025).
Where a name gives a salt, the structure may show the parent alone.

Assay: Solid-state chemical stability under different storage conditions (liquid chromatography)
Format: physicochemical
Conditions: 40° C., 75% RH; for Stability of solid state compound, 0 Days (%): liquid chromatography
Protocol: The HPLC conditions were as follows:
Configuration of test solution: appropriate amount of sample was dissolved and diluted with a diluent (0.03 mol/L phosphate buffer-acetonitrile (80:20)) to make 1 mg/mL solution.
Chromatographic conditions: according to the high performance liquid chromatography (Chinese Pharmacopoeia 2020 version of the four general 0512) test, using octadecyl-bonded silica gel (Agilent Eclipse Plus C18, 4.6 mm*250 mm, 5.0 μm, P/N for 959990-902 or a chromatographic column with equivalent performance) as a filler; 0.03 mol/L phosphate buffer (4.08 g of potassium dihydrogen phosphate was dissolved in 1000 ml of water and shaken well) was used as mobile phase A and acetonitrile as mobile phase B at a flow rate of 1 ml/min, the column temperature was 30° C., the detection wavelength was 220 nm, the injection volume was 10 ul, and the sample plate was controlled to 8° C. and running for 65 min. Gradient elution was performed according to the following table: […]
Configuration of test solution: appropriate amount of the product was dissolved and diluted with a diluent (0.1% phosphoric acid-acetonitrile (80:20)) to make 1 mg/mL solution.
Chromatographic conditions: according to the high performance liquid chromatography (Chinese Pharmacopoeia 2020 version of the four general 0512) test, using octadecyl bonded silica gel (Agilent Eclipse Plus C18, 4.6 mm*250 mm, 5.0 μm, P/N 959990-902 or a chromatographic column with equivalent performance) as a filler; 0.1% phosphate buffer (1 ml of phosphoric acid in 1000 ml of water and shake well) as mobile phase A, acetonitrile as mobile phase B, flow rate of 1 ml/min, column temperature of 30° C., detection wavelength of 220 nm, injection volume of 10 ul, running for 48 minutes. Gradient elution was performed according to the following table: […]

With `CC1(O)CCCC(N)(c2c(F)cc(F)cc2F)C1=O` (stereo not drawn) [Compound 44, 2-amino-6-hydroxy-6-methyl-2-(2,4,6-trifluorotoluene)cyclohexan-1-one hydrochloride] the “Stability of solid state compound, 0 Days (%)” value was 98.45%, the “Stability of solid state compound, 5 Days (%)” value (shortened to “Stability … 5 Days (%)”) was 98.53% and the “Stability of solid state compound, 30 Days (%)” value (from here on “Stability … 30 Days (%)”) was 98.35%.

In the case of `CC1(O)CCCC(N)(c2cccc(C#N)c2)C1=O.Cl` (stereo not drawn) [Compound 47, 3-(1-amino-3-hydroxy-3-methyl-2-oxocyclohexyl)benzonitrile hydrochloride], the “Stability of solid state compound, 0 Days (%)” value is reported as 98.89%, the “Stability … 5 Days (%)” value is reported as 98.86% and the “Stability … 30 Days (%)” value is reported as 98.86%.

With `CC1(O)CCCC(N)(c2cccc(F)c2F)C1=O.Cl` (stereo not drawn) [Compound 48, 2-amino-2-(2,3-difluorophenyl)-6-hydroxy-6-methylcyclohexan-1-one hydrochloride] the “Stability of solid state compound, 0 Days (%)” value was 99.25%, the “Stability … 5 Days (%)” value was 99.28% and the “Stability of solid state compound, 10 Days (%)” value (from here on “Stability … 10 Days (%)”) was 99.28%. The “Stability … 30 Days (%)” value was 99.17%.

In the case of `CNC1(c2cccc(OC(F)(F)F)c2F)CCCC(C)(O)C1=O.Cl` (stereo not drawn) [Compound 56, 2-(2-fluoro-3-(trifluoromethoxy)phenyl)-6-hydroxy-6-methyl-2-(methylamino)cyclohexan-1-one hydrochloride], the “Stability of solid state compound, 0 Days (%)” value is reported as 99.61% and the “Stability … 30 Days (%)” value is reported as 99.50%.

For `CNC1(c2c(F)cc(F)cc2F)CCCC(C)(O)C1=O.Cl` (stereo not drawn) [Compound 58, 2-hydroxy-2-methyl-6-methylamino-6-(2,4,6-trifluorotoluene)cyclohexan-1-one hydrochloride], the “Stability of solid state compound, 0 Days (%)” value was 99.34%, the “Stability … 10 Days (%)” value was 99.12% and the “Stability … 30 Days (%)” value was 99.14%.

In the case of `CNC1(c2cccc(C#N)c2)CCCC(C)(O)C1=O.Cl` (stereo not drawn) [Compound 63, 3-(3-hydroxy-3-methyl-1-methylamino-2-oxocyclohexyl)benzonitrile hydrochloride], the “Stability of solid state compound, 0 Days (%)” value is reported as 99.67%, the “Stability … 5 Days (%)” value is reported as 99.66% and the “Stability … 10 Days (%)” value is reported as 99.66%. For the same compound, the “Stability … 30 Days (%)” value was 99.66%.

With `CN[C@@]1(c2cccc(C#N)c2)CCC[C@](C)(O)C1=O.Cl` [Compound 64, 3-((1R, 3S)-3-hydroxy-3-methyl-1-methylamino-2-oxocyclohexyl)benzonitrile hydrochloride] the “Stability of solid state compound, 0 Days (%)” value was 99.88%, the “Stability … 5 Days (%)” value was 99.88% and the “Stability … 10 Days (%)” value was 99.89%. For the same compound, the “Stability … 30 Days (%)” value was 99.85%.

With `CNC1(c2cccc(OC(F)(F)F)c2)CCCC(C)(O)C1=O.Cl` (stereo not drawn) [Compound 67, 2-hydroxy-2-methyl-6-methylamino-6-(3-(trifluoromethoxy)phenyl)cyclohexan-1-one hydrochloride] the “Stability of solid state compound, 0 Days (%)” value was 99.82%, the “Stability … 10 Days (%)” value was 99.73% and the “Stability … 30 Days (%)” value was 99.57%.

With `CN[C@@]1(c2ccccc2Cl)CCC[C@](C)(O)C1=O.Cl` [Compound 69, (2R,6S)-2-(2-chlorophenyl)-6-hydroxy-6-methyl-2-methylaminocyclohexan-1-one hydrochloride] the “Stability of solid state compound, 0 Days (%)” value was 98.36%, the “Stability … 10 Days (%)” value was 98.43% and the “Stability … 30 Days (%)” value was 98.34%.

In the case of `CN[C@@]1(c2ccccc2Cl)CCC[C@@](C)(O)C1=O.Cl` [Compound 70, (2R,6R)-2-(2-chlorophenyl)-6-hydroxy-6-methyl-2-methylaminocyclohexan-1-one hydrochloride], the “Stability of solid state compound, 0 Days (%)” value is reported as 97.84%, the “Stability … 10 Days (%)” value is reported as 97.84% and the “Stability … 30 Days (%)” value is reported as 97.82%.

For `CN(C)[C@@]1(c2ccc(C(F)(F)F)cc2)CCC[C@@](C)(O)C1=O.Cl` [Compound 72, (2R,6R)-2-dimethylamino-6-hydroxy-6-methyl-2-(4-(trifluoromethyl)phenyl)cyclohexan-1-one hydrochloride], the “Stability of solid state compound, 0 Days (%)” value was 99.69%, the “Stability … 5 Days (%)” value was 99.66% and the “Stability … 10 Days (%)” value was 99.62%. The “Stability … 30 Days (%)” value was 99.61%.

For `CN[C@]1(c2ccc(C(F)(F)F)cc2)CCC[C@@](C)(O)C1=O.Cl` [Compound 75, (2R,6S)-2-hydroxy-2-methyl-6-methylamino-6-(4-(trifluoromethyl)phenyl)cyclohexan-1-one hydrochloride], the “Stability of solid state compound, 0 Days (%)” value was 99.85%, the “Stability … 10 Days (%)” value was 99.78% and the “Stability … 30 Days (%)” value was 99.77%.
